Data as given in ChEMBL document CHEMBL4715755, “Isothiouronium modification empowers pyrimidine-substituted curcumin analogs potent cytotoxicity and Golgi localization” (Eur J Med Chem, 2016).
Each block holds one compound with its values, some of them ahead of it. The source made the active and inactive calls. The rule behind the calls is not given here.

What was measured:
[1] = test system: HT-29; experiment: Cytotoxicity against human HT-29 cells assessed as reduction in cell viability incubated for 48 hrs by resazurin reagent based fluorescence assay; assay type: functional; conditions: HT-29, 48 h
[2] = test system: HCT-116; experiment: Cytotoxicity against human HCT-116 cells assessed as reduction in cell viability incubated for 48 hrs by resazurin reagent based fluorescence assay; assay type: functional; conditions: HCT-116, 48 h
[3] = test system: NCI-H1299; experiment: Cytotoxicity against human NCI-H1299 cells assessed as reduction in cell viability incubated for 48 hrs by resazurin reagent based fluorescence assay; assay type: functional; conditions: NCI-H1299, 48 h
[4] = test system: A549; experiment: Cytotoxicity against human A549 cells assessed as reduction in cell viability incubated for 48 hrs by resazurin reagent based fluorescence assay; assay type: functional; conditions: A549, 48 h
[5] = Drug localization in cytoplasm of human HCT-116 cells at 10 uM measured upto 12 hrs by Golgin-97 and DAPI staining based laser scanning confocal microscopic analysis; assay type: ADME, subcellular; conditions: hct-116, 12 h
[6] = Drug localization in cytoplasm of human A549 cells at 10 uM measured upto 12 hrs by Golgin-97 and DAPI staining based laser scanning confocal microscopic analysis; assay type: ADME, subcellular; conditions: a549, 12 h
[7] = test system: CHO-K1; experiment: Cytotoxicity against CHO-K1 cells assessed as reduction in cell viability at 10 uM incubated for 48 hrs by resazurin reagent based fluorescence assay; parameters: species or system Cricetulus griseus; conditions: chinese hamster, cho-k1, 48 h
[8] = Cytotoxicity against GAG-deficient CHO-745 cells assessed as reduction in cell viability at 10 uM incubated for 48 hrs by resazurin reagent based fluorescence assay; parameters: species or system Cricetulus griseus; conditions: chinese hamster, cho-745, 48 h
[9] = Cytotoxicity against heparan sulfate-deficient CHO-677 cells assessed as reduction in cell viability at 10 uM incubated for 48 hrs by resazurin reagent based fluorescence assay; parameters: species or system Cricetulus griseus; conditions: chinese hamster, cho-677, 48 h
[10] = test system: CHO; experiment: Cytotoxicity against CHO cells overexpressing 3-O-sulfotransferase 1 assessed as reduction in cell viability at 10 uM incubated for 48 hrs by resazurin reagent based fluorescence assay; parameters: species or system Cricetulus griseus; conditions: chinese hamster
[11] = test system: CHO; experiment: Cytotoxicity against CHO cells overexpressing 3-O-sulfotransferase 2 assessed as reduction in cell viability at 10 uM incubated for 48 hrs by resazurin reagent based fluorescence assay; parameters: species or system Cricetulus griseus; conditions: chinese hamster
[12] = test system: CHO; experiment: Cytotoxicity against CHO cells overexpressing 3-O-sulfotransferase 3 assessed as reduction in cell viability at 10 uM incubated for 48 hrs by resazurin reagent based fluorescence assay; parameters: species or system Cricetulus griseus; conditions: chinese hamster
[13] = test system: CHO; experiment: Cytotoxicity against CHO cells overexpressing 3-O-sulfotransferase 4 assessed as reduction in cell viability at 10 uM incubated for 48 hrs by resazurin reagent based fluorescence assay; parameters: species or system Cricetulus griseus; conditions: chinese hamster
[14] = test system: A549; experiment: Cytotoxicity against human A549 cells assessed as reduction in cell viability at 10 uM incubated for 48 hrs by resazurin reagent based fluorescence assay; assay type: functional
[15] = Drug localization in cytoplasm of human A549 cells at 10 uM incubated for 4 hrs by Golgin-97 and DAPI staining based laser scanning confocal microscopic analysis; assay type: ADME, subcellular; conditions: a549, 4 h
[16] = Drug localization in golgi bodies of human HCT-116 cells at 10 uM measured upto 12 hrs by Golgin-97 and DAPI staining based laser scanning confocal microscopic analysis; assay type: ADME, subcellular, Golgi body; conditions: hct-116, 12 h
[17] = Drug localization in golgi bodies of human A549 cells at 10 uM measured upto 12 hrs by Golgin-97 and DAPI staining based laser scanning confocal microscopic analysis; assay type: ADME, subcellular, Golgi body; conditions: a549, 12 h
[18] = Drug localization in golgi vesicles of human A549 cells at 10 uM incubated for 4 hrs by Golgin-97 and DAPI staining based laser scanning confocal microscopic analysis; assay type: ADME, subcellular, Golgi body; conditions: a549, 4 h
[19] = Drug localization in golgi bodies of human A549 cells at 10 uM incubated for 4 hrs by Golgin-97 and DAPI staining based laser scanning confocal microscopic analysis; assay type: ADME, subcellular, Golgi body; conditions: a549, 4 h

Drug uptake [5]: Active
Drug uptake [6]: Active
Drug uptake [15]: Active
SMILES: COc1ccc(/C=C/c2cc(/C=C/c3ccc(OC)cc3)nc(OCCCCBr)n2)cc1
IC50 [1]: > 20 µM
IC50 [2]: > 20 µM
IC50 [3]: > 20 µM
IC50 [4]: > 20 µM
Activity [7]: Non-Toxic
Activity [8]: Non-Toxic
Activity [9]: Non-Toxic
Activity [10]: Non-Toxic
Activity [11]: Non-Toxic
Activity [12]: Non-Toxic
Activity [13]: Non-Toxic
Activity [14]: inactive

Drug uptake [16]: Active
Drug uptake [17]: Active
Drug uptake [18]: Active
SMILES: Br.COc1ccc(/C=C/c2cc(/C=C/c3ccc(OC)cc3)nc(OCCCCCCSC(=N)N)n2)cc1
IC50 [1]: 2.14 µM
IC50 [2]: 1.98 µM
IC50 [3]: 3.69 µM
IC50 [4]: 1.97 µM

SMILES: COc1ccc(/C=C/c2cc(/C=C/c3ccc(OC)c(OC)c3)nc(OCCCCBr)n2)cc1OC
IC50 [1]: > 20 µM
IC50 [2]: > 20 µM
IC50 [3]: > 20 µM
IC50 [4]: > 20 µM
Activity [7]: Toxic
Activity [8]: Toxic
Activity [9]: Toxic
Activity [10]: Toxic
Activity [11]: Toxic
Activity [12]: Toxic
Activity [13]: Toxic
Activity [14]: Active

SMILES: BrCCCCCOc1nc(/C=C/c2ccccc2)cc(/C=C/c2ccccc2)n1
IC50 [1]: > 20 µM
IC50 [2]: > 20 µM
IC50 [3]: > 20 µM
IC50 [4]: > 20 µM

SMILES: Br.COc1ccc(/C=C/c2cc(/C=C/c3ccc(OC)c(OC)c3)nc(OCCCCSC(=N)N)n2)cc1OC
IC50 [1]: 0.61 µM
IC50 [2]: 1.86 µM
IC50 [3]: 1.53 µM
IC50 [4]: 2.36 µM
Activity [7]: Toxic
Activity [8]: Toxic
Activity [9]: Toxic
Activity [10]: Toxic
Activity [11]: Toxic
Activity [12]: Toxic
Activity [13]: Toxic
Activity [14]: Active

SMILES: N=C(N)SCCCCOc1nc(/C=C/c2ccccc2)cc(/C=C/c2ccccc2)n1
IC50 [1]: 1.75 µM
IC50 [2]: 1.87 µM
IC50 [3]: 4.51 µM
IC50 [4]: 4.57 µM

SMILES: N=C(N)SCCCCCCOc1nc(/C=C/c2ccccc2)cc(/C=C/c2ccccc2)n1
IC50 [1]: 2.89 µM
IC50 [2]: 2.3 µM
IC50 [3]: 6.4 µM
IC50 [4]: 3.98 µM

SMILES: COc1cc(/C=C/c2cc(/C=C/c3cc(OC)c(OC)c(OC)c3)nc(OCCCCSC(N(C)C)=[N+](C)C)n2)cc(OC)c1OC
IC50 [1]: 10.5 µM
IC50 [2]: 5.41 µM
IC50 [3]: 15 µM
IC50 [4]: 14.4 µM

Drug uptake [16]: Active
Drug uptake [17]: Active
Drug uptake [19]: Active
SMILES: Br.COc1ccc(/C=C/c2cc(/C=C/c3ccc(OC)cc3)nc(OCCCCSC(=N)N)n2)cc1
IC50 [1]: 0.79 µM
IC50 [2]: 1 µM
IC50 [3]: 0.92 µM
IC50 [4]: 0.99 µM
Activity [7]: Toxic
Activity [8]: Toxic
Activity [9]: Toxic
Activity [10]: Toxic
Activity [11]: Toxic
Activity [12]: Toxic
Activity [13]: Toxic
Activity [14]: Active

SMILES: COc1cc(/C=C/c2cc(/C=C/c3cc(OC)c(OC)c(OC)c3)nc(OCCCCCCSC(=N)N)n2)cc(OC)c1OC
IC50 [1]: 1.17 µM
IC50 [2]: 1.87 µM
IC50 [3]: 3.09 µM
IC50 [4]: 2 µM

SMILES: BrCCCCOc1nc(/C=C/c2ccccc2)cc(/C=C/c2ccccc2)n1
IC50 [1]: > 20 µM
IC50 [2]: > 20 µM
IC50 [3]: > 20 µM
IC50 [4]: > 20 µM

Drug uptake [16]: Active
Drug uptake [17]: Active
Drug uptake [18]: Active
SMILES: Br.COc1ccc(/C=C/c2cc(/C=C/c3ccc(OC)cc3)nc(OCCCCCSC(=N)N)n2)cc1
IC50 [1]: 2.03 µM
IC50 [2]: 1.93 µM
IC50 [3]: 2.96 µM
IC50 [4]: 1.97 µM

SMILES: COc1ccc(/C=C/c2cc(/C=C/c3ccc(OC)c(OC)c3)nc(OCCCCCCBr)n2)cc1OC
IC50 [1]: > 20 µM
IC50 [2]: > 20 µM
IC50 [3]: > 20 µM
IC50 [4]: > 20 µM

SMILES: N=C(N)SCCCCCOc1nc(/C=C/c2ccccc2)cc(/C=C/c2ccccc2)n1
IC50 [1]: 2.82 µM
IC50 [2]: 2.39 µM
IC50 [3]: 7.09 µM
IC50 [4]: 4.11 µM

SMILES: COc1cc(/C=C/c2cc(/C=C/c3cc(OC)c(OC)c(OC)c3)nc(OCCCCCCBr)n2)cc(OC)c1OC
IC50 [1]: > 20 µM
IC50 [2]: > 20 µM
IC50 [3]: > 20 µM
IC50 [4]: > 20 µM

SMILES: COc1ccc(/C=C/c2cc(/C=C/c3ccc(OC)c(OC)c3)nc(OCCCCCBr)n2)cc1OC
IC50 [1]: > 20 µM
IC50 [2]: > 20 µM
IC50 [3]: > 20 µM
IC50 [4]: > 20 µM

SMILES: COc1ccc(/C=C/c2cc(/C=C/c3ccc(OC)c(OC)c3)nc(OCCCCCSC(=N)N)n2)cc1OC
IC50 [1]: 1.91 µM
IC50 [2]: 1.81 µM
IC50 [3]: 4.04 µM
IC50 [4]: 1.99 µM

SMILES: COc1cc(/C=C/c2cc(/C=C/c3cc(OC)c(OC)c(OC)c3)nc(OCCCCCSC(=N)N)n2)cc(OC)c1OC
IC50 [1]: 1.86 µM
IC50 [2]: 2.08 µM
IC50 [3]: 4.13 µM
IC50 [4]: 2.88 µM

Drug uptake [16]: Not Active
Drug uptake [17]: Not Active
SMILES: COc1ccc(/C=C/c2cc(/C=C/c3ccc(OC)cc3)nc(OCCCCSC(N(C)C)=[N+](C)C)n2)cc1.[Br-]
IC50 [1]: 5.97 µM
IC50 [2]: 3 µM
IC50 [3]: 7.49 µM
IC50 [4]: 2.26 µM
Activity [7]: Non-Toxic
Activity [8]: Non-Toxic
Activity [9]: Non-Toxic
Activity [10]: Non-Toxic
Activity [11]: Non-Toxic
Activity [12]: Non-Toxic
Activity [13]: Non-Toxic
Activity [14]: Active

SMILES: COc1ccc(/C=C/c2cc(/C=C/c3ccc(OC)cc3)nc(OCCCCCBr)n2)cc1
IC50 [1]: > 20 µM
IC50 [2]: > 20 µM
IC50 [3]: > 20 µM
IC50 [4]: > 20 µM

SMILES: COc1ccc(/C=C/c2cc(/C=C/c3ccc(OC)cc3)nc(OCCCCCCBr)n2)cc1
IC50 [1]: > 20 µM
IC50 [2]: > 20 µM
IC50 [3]: > 20 µM
IC50 [4]: > 20 µM

SMILES: COc1ccc(/C=C/c2cc(/C=C/c3ccc(OC)c(OC)c3)nc(OCCCCCCSC(=N)N)n2)cc1OC
IC50 [1]: 1.72 µM
IC50 [2]: 2.02 µM
IC50 [3]: 3.75 µM
IC50 [4]: 2.09 µM

SMILES: BrCCCCCCOc1nc(/C=C/c2ccccc2)cc(/C=C/c2ccccc2)n1
IC50 [1]: > 20 µM
IC50 [2]: > 20 µM
IC50 [3]: > 20 µM
IC50 [4]: > 20 µM

SMILES: COc1cc(/C=C/c2cc(/C=C/c3cc(OC)c(OC)c(OC)c3)nc(OCCCCBr)n2)cc(OC)c1OC
IC50 [1]: > 20 µM
IC50 [2]: > 20 µM
IC50 [3]: > 20 µM
IC50 [4]: > 20 µM

SMILES: COc1cc(/C=C/c2cc(/C=C/c3cc(OC)c(OC)c(OC)c3)nc(OCCCCCBr)n2)cc(OC)c1OC
IC50 [1]: > 20 µM
IC50 [2]: > 20 µM
IC50 [3]: > 20 µM
IC50 [4]: > 20 µM

SMILES: COc1ccc(/C=C/c2cc(/C=C/c3ccc(OC)c(OC)c3)nc(OCCCCSC(N(C)C)=[N+](C)C)n2)cc1OC.[Br-]
IC50 [1]: 4.1 µM
IC50 [2]: 3.89 µM
IC50 [3]: 5.81 µM
IC50 [4]: 9.71 µM
Activity [7]: Non-Toxic
Activity [8]: Non-Toxic
Activity [9]: Non-Toxic
Activity [10]: Non-Toxic
Activity [11]: Non-Toxic
Activity [12]: Non-Toxic
Activity [13]: Non-Toxic
Activity [14]: Active

SMILES: COc1cc(/C=C/c2cc(/C=C/c3cc(OC)c(OC)c(OC)c3)nc(OCCCCSC(=N)N)n2)cc(OC)c1OC
IC50 [1]: 2.19 µM
IC50 [2]: 3.77 µM
IC50 [3]: 5.1 µM
IC50 [4]: 4.24 µM
